Test results taken from patent US9150568B2, “Compositions and methods for modulating FXR” (NOVARTIS AG, priority 2010, dated 2015).

Molecular target: T1, human Farnesoid X Receptor (FXR) ligand binding domain (GST-FXR LBD) (Homo sapiens, UniProt Q96RI1)
T1 construct: purchased Invitrogen
T1 sequence (Q96RI1 193-472 isoform Q96RI1-2): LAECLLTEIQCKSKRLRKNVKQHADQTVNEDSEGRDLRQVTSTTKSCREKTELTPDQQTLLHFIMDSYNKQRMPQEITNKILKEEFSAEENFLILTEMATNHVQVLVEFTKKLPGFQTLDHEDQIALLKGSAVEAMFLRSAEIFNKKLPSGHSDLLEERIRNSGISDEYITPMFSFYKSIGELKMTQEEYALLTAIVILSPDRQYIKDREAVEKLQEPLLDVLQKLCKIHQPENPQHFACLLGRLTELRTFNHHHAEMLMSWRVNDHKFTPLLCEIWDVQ
Test: Human GST-FXR LBD co-activator interaction assay (HTRF)
Assay type: biochemical
Conditions: GST-FXR LBD / biotin-SRC-1 peptide FRET; response relative to GW4064; read-out: FXR Co-activator interaction assay (EC50)
Summary of the method: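 FRET (HTRF) read-out of ligand-induced binding between GST-FXR LBD and an SRC-1 peptide, detected with anti-GST cryptate and streptavidin-XL665 in buffer with 50 mM KF. Response % was normalized to DMSO and to the maximal GW4064 response. EC50 came from a four-parameter fit.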

| SMILES | EC50 [nM] |
| --- | --- |
| COc1cc(C(=O)O)cc2sc(N3C4CC[C@H]3C[C@H](OCc3c(-c5ccccc5OC(F)F)noc3C3CC3)C4)nc12 [Example 6-4] | 0.18 |
| NC(=O)c1cc(F)c2nc(N3C4CC[C@H]3C[C@H](OCc3c(-c5ccccc5OC(F)(F)F)noc3C3CC3)C4)sc2c1 [Example 5-1] | 7.6 |
| O=C(O)c1cnc(N2C3CC[C@H]2CC(OCc2c(-c4ccccc4OC(F)(F)F)noc2C2CC2)C3)s1 (stereo partly shown) [Example 30-75] | 17 |
| O=C(O)c1ccc2c(N3C4CC[C@H]3CC(OCc3c(-c5ccccc5OC(F)(F)F)noc3C3CC3)C4)ncnc2c1 (stereo partly shown) [Example 30-56] | 5.7 |
| COC(=O)c1ccc(N2C3CC[C@H]2CC(OCc2c(-c4ccccc4OC(F)F)noc2C2CC2)C3)c(F)c1 (stereo partly shown) [Example 25-6A] | 9 |
| Cc1cc(C(=O)O)cc2sc(N3C4CC[C@H]3CC(OCc3c(-c5ccc(F)cc5)noc3C3CC3)C4)nc12 (stereo partly shown) [Example 30-35] | 46 |
| O=C(O)c1ccc2nc(N3[C@@H]4CC[C@H]3C[C@@H](OCc3c(-c5ccc(F)cc5)noc3C3CC3)C4)sc2c1 [Example 30-6] | 42 |
| O=C(O)c1cnc(N2C3CC[C@H]2C[C@H](OCc2c(-c4ccccc4OC(F)(F)F)noc2C2CC2)C3)nc1 [Example 18-4B] | 10 |
| COC(=O)c1cc(OC)c2nc(N3C4CC[C@H]3C[C@H](OCc3c(-c5c(F)cccc5F)noc3C3CC3)C4)sc2c1 [Example 6-6A] | 14 |
| O=C(O)c1cc(F)c2nc(N3C4CC[C@H]3CC(OCc3c(C5CCC6CC6C5)noc3C3CC3)C4)sc2c1 (stereo partly shown) [Example 29-7] | 5 |
| Cc1cc(C(=O)O)nc(N2C3CC[C@H]2C[C@H](OCc2c(C4CCC5(CC4)CC5)noc2C2CC2)C3)n1 [Example 14] | 35 |
| COC(=O)c1cnc(N2C3CC[C@H]2CC(OCc2c(-c4ccccc4C(F)(F)F)noc2C2CC2)C3)nc1 (stereo partly shown) [Example 21-2A] | 120 |
| O=C(O)c1ccc(N2C3CC[C@H]2CC(OCc2c(-c4ccccc4Cl)noc2C2CC2)C3)nc1 (stereo partly shown) [Example 30-21] | 3 |
| O=C(O)c1ccc(N2[C@@H]3CC[C@H]2C[C@@H](OCc2c(-c4c(F)cccc4Cl)noc2C2CC2)C3)nc1 [Example 30-18] | 6 |
| O=C(O)c1ccnc(N2C3CC[C@H]2CC(OCc2c(-c4ccccc4C(F)(F)F)noc2C2CC2)C3)c1 (stereo partly shown) [Example 20B, 2-(3-((5-cyclopropyl-3-(2-(trifluoromethyl)phenyl)isoxazol-4-yl)methox)-8-azabicyclo[3.2.1]octan-8-yl)isonicotinic acid] | 330 |
| O=C(O)c1ccc2nc(N3C4CC[C@H]3CC(OCc3c(-c5ccccc5OC(F)(F)F)noc3C3CC3)C4)ccc2c1 (stereo partly shown) [Example 30-53] | 1 |
| COC(=O)c1cnc(N2[C@@H]3CC[C@H]2C[C@@H](OCc2c(-c4c(F)cccc4F)noc2C2CC2)C3)c(C2CC2)c1 [Example 22-17A] | 65 |
| COC(=O)c1cc(F)c2nc(N3C4CC[C@H]3C[C@H](OCc3c(-c5c(F)cccc5F)noc3C3CC3)C4)sc2c1 [Example 6-7A] | 14 |
| O=C(NCCS(=O)(=O)O)c1cc(F)c2nc(N3C4CC[C@H]3C[C@H](OCc3c(-c5ccccc5C(F)(F)F)noc3C3CC3)C4)sc2c1 [Example 16-3] | 1.2 |
| NC(=O)c1ccc(N2C3CC[C@H]2CC(OCc2c(-c4ccccc4OC(F)F)noc2C2CC2)C3)c(F)c1 (stereo partly shown) [Example 27] | 2 |
| CCOC(=O)c1ccc2nc(N3C4CC[C@H]3C[C@H](OCc3c(-c5ccccc5OC(F)F)noc3C3CC3)C4)sc2c1 [Example 6-2A] | 51 |
| Cn1nc(C(=O)O)c2ccc(N3[C@@H]4CC[C@H]3C[C@@H](OCc3c(-c5ccccc5C(F)(F)F)noc3C3CC3)C4)cc21 [Example 28-26] | 1.2 |
| Cc1c(N2C3CC[C@H]2CC(OCc2c(-c4ccccc4OC(F)(F)F)noc2C2CC2)C3)ccc2oc(C(=O)O)cc12 (stereo partly shown) [Example 28-11] | 1.3 |

| SMILES | EC50 [nM] |
| --- | --- |
| COC(=O)c1cc(F)c2nc(N3C4CC[C@H]3C[C@H](OCc3c(-c5ccccc5OC(F)F)noc3C3CC3)C4)sc2c1 [Example 6-3A] | 12 |
| O=C(O)c1cc(C2CC2)nc(N2C3CC[C@H]2CC(OCc2c(-c4ccccc4C(F)(F)F)noc2C2CC2)C3)n1 (stereo partly shown) [Example 30-43] | 4.6 |
| O=C(O)c1noc2cc(N3C4CC[C@H]3CC(OCc3c(-c5ccccc5OC(F)(F)F)noc3C3CC3)C4)ccc12 (stereo partly shown) [Example 28-18] | 8.2 |
| COC(=O)c1ccc(N2C3CC[C@H]2C[C@H](OCc2c(-c4ccccc4OC(F)(F)F)noc2C2CC2)C3)nc1 [Example 18-3A] | 8 |
| O=C(O)C1(c2ccc(N3C4CC[C@H]3CC(OCc3c(-c5ccccc5OC(F)(F)F)noc3C3CC3)C4)cc2)CC1 (stereo partly shown) [Example 28-7] | 21 |
| COc1cc(C(=O)O)cc2sc(N3C4CC[C@H]3C[C@H](OCc3c(C5CCCCC5C(F)(F)F)noc3C3CC3)C4)nc12 (stereo partly shown) [Example 8-2] | 2.4 |
| O=C(O)c1cnc(N2C3CC[C@H]2CC(OCc2c(-c4ccccc4OC(F)F)noc2C2CC2)C3)cn1 (stereo partly shown) [Example 22-11B] | 10 |
| O=C(O)c1ccnc(N2C3CC[C@H]2CC(OCc2c(-c4ccccc4OC(F)F)noc2C2CC2)C3)n1 (stereo partly shown) [Example 22-2B] | 9 |
| COC(=O)c1cnc(N2C3CC[C@H]2CC(OCc2c(-c4ccccc4OC(F)F)noc2C2CC2)C3)nc1 (stereo partly shown) [Example 22-10A] | 360 |
| O=C(O)c1cc(F)c(N2C3CC[C@H]2CC(OCc2c(-c4ccccc4C(F)(F)F)noc2C2CC2)C3)c(F)c1 (stereo partly shown) [Example 25-2B] | 5 |
| O=C(O)c1cnc2cc(N3C4CC[C@H]3CC(OCc3c(-c5ccccc5OC(F)(F)F)noc3C3CC3)C4)ccc2c1 (stereo partly shown) [Example 28-3] | 0.8 |
| Cc1cc(C(=O)O)nc(N2C3CC[C@H]2CC(OCc2c(-c4ccccc4F)noc2C2CC2)C3)n1 (stereo partly shown) [Example 30-68] | 13 |
| O=C(O)c1cc(F)c2nc(N3C4CC[C@H]3C[C@H](OCc3c(-c5c(F)cccc5F)noc3C3CC3)C4)sc2c1 [Example 6-7B] | 0.58 |
| O=C(O)c1cc(F)c2nc(N3C4CC[C@H]3C[C@H](OCc3c(C5CCCCC5C(F)(F)F)noc3C3CC3)C4)sc2c1 (stereo partly shown) [Example 8-1] | 4 |
| O=C(O)c1cc(F)c2nc(N3C4CC[C@H]3C[C@H](OCc3c(C5CC5)noc3C3CC3)C4)sc2c1 [Example 12-2] | 40 |
| O=C(O)c1cnc(N2C3CC[C@H]2C[C@H](OCc2c(C4CCCCC4C(F)(F)F)noc2C2CC2)C3)cn1 (stereo partly shown) [Example 8-5B] | 110 |
| COc1cc(C(=O)O)cc2sc(N3C4CC[C@H]3C[C@H](OCc3c(-c5c(F)cccc5F)noc3C3CC3)C4)nc12 [Example 6-6B] | 0.3 |
| COC(=O)c1cc(C)nc(N2C3CC[C@H]2CC(OCc2c(-c4c(F)cccc4F)noc2C2CC2)C3)n1 (stereo partly shown) [Example 22-18A] | 43 |
| O=C(O)c1cc(F)c2nc(N3C4CC[C@H]3C[C@H](OCc3c(C5CCC6(CC5)CC6)noc3C3CC3)C4)sc2c1 [Example 13-2B] | 0.53 |
| O=C(O)c1cccc2nc(N3C4CC[C@H]3CC(OCc3c(-c5ccccc5OC(F)(F)F)noc3C3CC3)C4)ccc12 (stereo partly shown) [Example 30-55] | 1 |
| O=C(O)c1cc2ccc(N3C4CC[C@H]3CC(OCc3c(-c5ccccc5OC(F)(F)F)noc3C3CC3)C4)cc2o1 (stereo partly shown) [Example 28-15] | 3.4 |
| Cc1cc(C(=O)O)nc(N2C3CC[C@H]2CC(OCc2c(-c4c(F)cccc4F)noc2C2CC2)C3)n1 (stereo partly shown) [Example 22-18B] | 18 |
| CC1(C)CCC(c2noc(C3CC3)c2CO[C@@H]2CC3CC[C@@H](C2)N3c2nc3c(F)cc(C(=O)O)cc3s2)CC1 [Example 8-4] | 8.9 |
